From ChEMBL document CHEMBL1201862, “PubChem BioAssay data set” (2004) come the findings set out here.

Test systems include LOX IMVI; MDA-N; IGROV-1; SF-268; SK-OV-3; T47D; SNB-19; OVCAR-4; Hs-578T; SF-295; UACC-257; NCI-H460; SNB-75; KM12; A498; U-251; K562; CCRF-CEM; HCT-15; ACHN.
Holding throughout (experiment): NCI tumour cell line growth inhibition, 48 h

SMILES strings stand for the structures.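 48-hour exposure; five concentrations; linearly interpolated endpoints. GI50: concentration for 50% inhibition of growth.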 Active and inactive are the calls of the source. Rule as the data show it: active = GI50 up to about 1.1 µM and inactive = higher.

For the molecule `CC1=NN(C(=O)CC(=O)Nc2ccc(Cl)cc2)C(=O)C1/N=N\c1ccc(S(=O)(=O)c2ccc(/N=N/C3C(=O)N(C(=O)CC(=O)Nc4ccc(Cl)cc4)N=C3C)cc2)cc1` (configuration not stated), the GI50 with LOX IMVI, with MDA-N, with IGROV-1, in the experiment with SF-268, with SK-OV-3 and in the experiment with T47D was > 100 µM (inactive) in each case. The GI50 was 61.5 µM (inactive) with SNB-19; > 100 µM (inactive) with OVCAR-4; > 100 µM (inactive) in the experiment on Hs-578T; > 100 µM (inactive) with SF-295; > 100 µM (inactive) in the experiment on UACC-257; > 100 µM (inactive) with NCI-H460. In addition, the GI50 was 39.5 µM (inactive) in the experiment on SNB-75; > 100 µM (inactive) in the experiment with KM12; > 100 µM (inactive) with A498; 22.4 µM (inactive) with U-251; 77.1 µM (inactive) in the experiment on K562; > 100 µM (inactive) in the experiment on CCRF-CEM. Also, the results for the GI50 in the experiment on HCT-15 and with ACHN were 60.8 µM and 24.7 µM (inactive), respectively.
In the case of `CCN(C)c1nc(N(C)CC)c2nc(N(C)CC)nc(N(C)CC)c2n1`, the GI50 in the experiment on LOX IMVI, in the experiment on MDA-N, in the experiment on IGROV-1, with SF-268, in the experiment on SK-OV-3 and with T47D was > 100 µM (inactive) throughout. Moreover, the GI50 in the experiment with SNB-19, with OVCAR-4, with Hs-578T, in the experiment with SF-295, in the experiment on UACC-257 and with NCI-H460 was > 100 µM (inactive) in each case. The GI50 with SNB-75, in the experiment with KM12, in the experiment with A498, in the experiment on U-251, with K562 and in the experiment with CCRF-CEM was > 100 µM (inactive) throughout. Also, the results for the GI50 with HCT-15 and with ACHN were greater than 100 µM and > 100 µM (inactive), respectively.
As for `COc1ccc(C2SCC(=O)N2c2ccc(-n3c(-c4ccccc4)nc4ccccc4c3=O)cc2)cc1OC` (configuration not stated), the GI50 with LOX IMVI was > 100 µM (inactive); with MDA-N, > 100 µM (inactive); with IGROV-1 it was > 100 µM (inactive); in the experiment on SF-268, > 100 µM (inactive); in the experiment with SK-OV-3, > 100 µM (inactive); in the experiment with T47D, 90.6 µM (inactive). The GI50 in the experiment with SNB-19 is > 100 µM (inactive); with OVCAR-4, > 10 µM (inactive); with Hs-578T it was 99.8 µM (inactive); with SF-295, > 100 µM (inactive); with UACC-257, > 100 µM (inactive); in the experiment with NCI-H460 it was > 100 µM (inactive). Besides, the GI50 with SNB-75 is 3.11 µM (inactive); with KM12 it was > 100 µM (inactive); in the experiment on A498, > 100 µM (inactive); in the experiment on U-251, > 100 µM (inactive); in the experiment with K562, > 100 µM (inactive); in the experiment with CCRF-CEM it was > 100 µM (inactive). Further, the GI50 with HCT-15 is greater than 100 µM; in the experiment on ACHN it was > 100 µM (inactive).
Consider `COc1ccc(-c2sc(Br)c3c2C(=O)C2OC(=O)NC32)cc1OC` (configuration not stated), for which the GI50 was 45.2 µM (inactive) in the experiment with LOX IMVI; > 100 µM (inactive) with MDA-N; > 100 µM (inactive) in the experiment on IGROV-1; > 100 µM (inactive) with SF-268; > 100 µM (inactive) in the experiment with SK-OV-3; > 100 µM (inactive) in the experiment on T47D. Moreover, the GI50 in the experiment with SNB-19, with OVCAR-4, in the experiment with Hs-578T, in the experiment with SF-295, in the experiment on UACC-257 and in the experiment with NCI-H460 was > 100 µM (inactive) throughout. Besides, the GI50 in the experiment on SNB-75, in the experiment on KM12, in the experiment with A498, in the experiment on U-251, in the experiment on K562 and in the experiment on CCRF-CEM was > 100 µM (inactive) in each case. The GI50 with HCT-15 is greater than 100 µM; with ACHN it was > 100 µM (inactive).
On to `O=C1c2ccccc2-c2nnc3c(c21)Cc1ccccc1C3`, for which the GI50 in the experiment on LOX IMVI, in the experiment with MDA-N, in the experiment on IGROV-1, in the experiment on SF-268, with SK-OV-3 and with T47D was > 10 µM (inactive) throughout. The GI50 was > 10 µM (inactive) in the experiment with SNB-19; > 10 µM (inactive) with OVCAR-4; > 10 µM (inactive) in the experiment on Hs-578T; > 10 µM (inactive) with SF-295; > 10 µM (inactive) in the experiment on NCI-H460; 2.43 µM (inactive) in the experiment on SNB-75. Moreover, the GI50 with KM12 is > 10 µM (inactive); in the experiment on A498 it was > 10 µM (inactive); in the experiment on U-251, > 10 µM (inactive); in the experiment with K562, > 10 µM (inactive); in the experiment on CCRF-CEM, > 10 µM (inactive); in the experiment with HCT-15, greater than 10 µM. Also, the GI50 in the experiment with ACHN was > 10 µM (inactive).
For `CCC(=O)COc1ccc(NC(NC(=O)C(C(F)(F)F)C(F)(F)F)(C(F)(F)F)C(F)(F)F)cc1`, the GI50 is 28.6 µM (inactive) in the experiment with LOX IMVI; 28.3 µM (inactive) in the experiment on MDA-N; 19.4 µM (inactive) in the experiment on IGROV-1; 27.9 µM (inactive) in the experiment with SF-268; 55.6 µM (inactive) in the experiment with SK-OV-3; 20.6 µM (inactive) with T47D. For the same molecule, the GI50 in the experiment with SNB-19 was 46.9 µM (inactive); in the experiment on OVCAR-4, 35.6 µM (inactive); in the experiment with Hs-578T, 31 µM (inactive); with SF-295, 66.4 µM (inactive); in the experiment with UACC-257, 53.7 µM (inactive); in the experiment with NCI-H460 it was 77.4 µM (inactive). Further, the GI50 in the experiment on SNB-75 is 23.7 µM (inactive); with KM12, 36.2 µM (inactive); in the experiment with A498, 60.4 µM (inactive); with U-251, 46.7 µM (inactive); in the experiment on CCRF-CEM, 22.3 µM (inactive); in the experiment with HCT-15, 27.5 µM. Besides, in the experiment on ACHN, the GI50 was 33.5 µM (inactive).
On to `C=C(C)C(=O)O[C@H]1C/C(CO)=C/CCC(=C)C(OC(C)=O)[C@H]2OC(=O)C(=C)[C@H]12` (some centres not stated), for which the GI50 with LOX IMVI was 4.12 µM (inactive); in the experiment on MDA-N, 4.49 µM (inactive); in the experiment with IGROV-1 it was 17.5 µM (inactive); with SF-268, 2 µM (inactive); in the experiment with SK-OV-3, 44.9 µM (inactive); in the experiment with T47D it was 6.95 µM (inactive). The GI50 in the experiment with SNB-19 was 28.7 µM (inactive); with Hs-578T, 12.2 µM (inactive); in the experiment on SF-295 it was 23.7 µM (inactive); in the experiment with UACC-257, 10 µM (inactive); in the experiment on NCI-H460, 17.1 µM (inactive); in the experiment with SNB-75, 2.35 µM (inactive). In addition, the GI50 is 14.7 µM (inactive) in the experiment with KM12; 18.7 µM (inactive) in the experiment on A498; 17.8 µM (inactive) in the experiment with U-251; 2.44 µM (inactive) in the experiment on K562; 1.6 µM (inactive) with CCRF-CEM; 2.3 µM with HCT-15. Besides, in the experiment on ACHN, the GI50 was 8.45 µM (inactive).
As to `Cc1ccc(C2=CC(=O)/C(=C\C(=O)c3ccc(Cl)cc3)O2)cc1`, the GI50 in the experiment on LOX IMVI is 1.43 µM (inactive); in the experiment on MDA-N, 3.2 µM (inactive); in the experiment on IGROV-1, 16.2 µM (inactive); in the experiment with SF-268, 17.1 µM (inactive); in the experiment on SK-OV-3 it was 6.43 µM (inactive); in the experiment on T47D, 7.18 µM (inactive). In addition, the GI50 is 49.2 µM (inactive) with SNB-19; 15.9 µM (inactive) with OVCAR-4; 23.9 µM (inactive) in the experiment on Hs-578T; 0.1 µM (active) in the experiment on UACC-257; > 10 µM (inactive) in the experiment on NCI-H460; 35.8 µM (inactive) in the experiment on SNB-75. Besides, the GI50 in the experiment with KM12 is 22.8 µM (inactive); with A498, 27.2 µM (inactive); in the experiment with U-251 it was 17.7 µM (inactive); in the experiment with K562, 4.15 µM (inactive); in the experiment with CCRF-CEM it was 3.19 µM (inactive); in the experiment on HCT-15, 17.7 µM. Also, the GI50 in the experiment with ACHN is 5.09 µM (inactive).
For `COC(=O)c1ccc(NCC2=CC(=O)C=CC2=O)cc1O`, the GI50 in the experiment with LOX IMVI is 16.8 µM (inactive); with MDA-N, 16.4 µM (inactive); in the experiment with IGROV-1, 17.3 µM (inactive); with SF-268, 28.9 µM (inactive); in the experiment on SK-OV-3, 20.4 µM (inactive); in the experiment on T47D, 8.43 µM (inactive). Besides, the GI50 in the experiment on SNB-19 was 19.7 µM (inactive); in the experiment on OVCAR-4, 16.6 µM (inactive); in the experiment with Hs-578T, 48.6 µM (inactive); with SF-295 it was 17.7 µM (inactive); with UACC-257 it was 16.2 µM (inactive); in the experiment with NCI-H460, 21 µM (inactive). For the same molecule, the GI50 was 19 µM (inactive) in the experiment on SNB-75; 17.2 µM (inactive) with A498; 36.5 µM (inactive) in the experiment with U-251; 3.33 µM (inactive) in the experiment with K562; 5.32 µM (inactive) in the experiment with CCRF-CEM; 16.5 µM with HCT-15. The GI50 with ACHN was 13.8 µM (inactive).
Regarding `O=C1NC2(CCCCC2)C(=O)N1CCN(CCCl)CCCl` [SPIROMUSTINE], the GI50 was 104 µM (inactive) in the experiment on LOX IMVI; > 25 µM (inactive) in the experiment with MDA-N; > 250 µM (inactive) in the experiment with IGROV-1; 171 µM (inactive) in the experiment with SK-OV-3; 23.9 µM (inactive) with T47D; 187 µM (inactive) in the experiment on SNB-19. The GI50 in the experiment on OVCAR-4 was > 239 µM (inactive); in the experiment on Hs-578T, > 25 µM (inactive); with UACC-257, 218 µM (inactive); in the experiment with NCI-H460, 61.5 µM (inactive); in the experiment with SNB-75 it was 173 µM (inactive); in the experiment on KM12, 199 µM (inactive). Besides, the GI50 in the experiment on A498 is > 250 µM (inactive); in the experiment with U-251, 182 µM (inactive); in the experiment with K562, 214 µM (inactive); in the experiment on CCRF-CEM, 45.8 µM (inactive); in the experiment on ACHN, 23.1 µM (inactive).
